Structures can show the parent of a compound that is named as a salt.
Each compound was assayed on type I collagen α1 chain mRNA in WI-38 cells (assay: Type I collagen α1 chain mRNA expression inhibition test). Conditions: Homo sapiens, WI-38, 24 h, read-out: Inhibition rate (%) at 10 μmol/L.
Type: cell-based
Protocol: Human embryonic lung fibroblast cell line WI-38 cells were suspended in a Dulbecco's modified Eagle's medium containing 10% fetal calf serum, and 7.5×10^4 cells were inoculated on a 12-well plate and cultured for 3 days, or 1.5×10^5 cells were inoculated and cultured for 2 days. After the growth of the cells to a subconfluent state, the culture medium was changed to a Dulbecco's modified Eagle's medium containing 0.4% fetal calf serum and 50 μg/mL ascorbic acid, and the cells were further cultured for 24 hours. Then, a test compound was added thereto, and, one hour later, TGF-β1 was added at a final concentration of 1 ng/mL. Twenty-four hours after the addition, the total RNA was extracted from the cells using an RNA extraction kit (SV Total RNA Isolation System, Promega), and cDNA was synthesized using a reverse transcriptase (ReverTra Ace, TOYOBO). The expression level of the type I collagen al chain mRNA was analyzed with a real-time PCR instrument (ABI PRISM 7700 Sequence Detection System, Applied Biosystems) by a real-time PCR method using a premix reagent of real-time PCR (SYBR Premix Ex Taq or SYBR Premix Ex Taq II (Perfect Real Time), TaKaRa). A PCR reaction was conducted with diluted cDNA as a template, using primers specific for a type I collagen α1 chain gene or a GAPDH gene as an internal standard, and the reaction product was measured. The PCR reaction was conducted by incubation at 95° C. for 10 seconds and 45 cycles of denaturation at 95° C. for 5 seconds and annealing/extension at 60° C. for 30 seconds. The expression level of the type I collagen α1 chain mRNA was corrected with GAPDH and was expressed as a relative value when the expression level obtained in the absence of the test compound was defined as 100%.

With `O=C(Nc1cc(-c2ccccc2)ccc1C(=O)O)c1cc(-c2ccncc2)ccc1O` [Example 19a, sodium 2-(2-hydroxy-5-(pyridin-4-yl)benzamido)-4-phenylbenzoate] as the compound, how does the inhibition at 10 µM read?
Its inhibition at 10 µM is 83%.

How did the inhibition at 10 µM turn out when `O=C(Nc1cc(N2CCCCC2)ccc1C(=O)O)c1cncc(-c2ccccc2)c1` [63b, Sodium 2-(5-phenylpyridine-3-carboxamido)-4-(piperidin-1-yl)benzoate] was run?
The inhibition at 10 µM was 65%.

With `O=C(Nc1cc(-c2ccccc2OC(F)F)ccc1C(=O)O)c1cncc(-c2ccccc2)c1` [9b] as the compound, how does the inhibition at 10 µM read?
The inhibition at 10 µM was 84%.

Which inhibition at 10 µM does the source give for `CN(CCN1CCCC1)c1ccc(O)c(C(=O)Nc2cc(-c3ccccc3)ccc2C(=O)O)c1` [Example 95a, sodium 2-(2-hydroxy-5-(methyl(2-(pyrrolidin-1-yl)ethyl)amino)benzamido)-4-phenylbenzoate] here?
Its inhibition at 10 µM is 88%.

For `O=C(Nc1cc(-c2ccco2)ccc1C(=O)O)c1cc(-c2cccnc2)ccc1O` [Example 44a, sodium 4-(furan-2-yl)-2-(2-hydroxy-5-(pyridin-3-yl)benzamido)benzoate], which inhibition at 10 µM is on record?
Its inhibition at 10 µM is 89%.

Same assay, conditions: Homo sapiens; 10 μmol/L test compound; WI-38 cells, TGF-β1 1 ng/mL, 24 hours; Table 4a; read-out: Inhibition rate (%) at 10 μmol/L

With `CCN(CC)CCN(C)c1ccc(O)c(C(=O)Nc2cc(-c3ccccc3)ccc2C(=O)O)c1` [Example 102a, 2-(5-((2-(Diethylamino)ethyl)(methyl)amino)-2-hydroxybenzamido)-4-phenylbenzoic acid] as the compound, how does the inhibition at 10 µM read?
Its inhibition at 10 µM is 89%.

Which inhibition at 10 µM does the source give for `O=C(Nc1cc(-c2ccccc2)ccc1C(=O)O)c1cc(Oc2ccccc2)ccc1O` [Example 115a, 2-(2-hydroxy-5-phenoxybenzamido)-4-phenylbenzoic acid] here?
The inhibition at 10 µM was 98%.

How did the inhibition at 10 µM turn out when `CN1CCC(CCOc2ccc(O)c(C(=O)Nc3cc(-c4ccccc4)ccc3C(=O)O)c2)CC1` [190a, 2-(2-Hydroxy-5-(2-(1-methylpiperidin-4-yl)ethoxy)benzamido)-4-phenylbenzoic acid hydrochloride] was run?
Its inhibition at 10 µM is 86%.

How did the inhibition at 10 µM turn out when `Nc1cccc(-c2ccc(O)c(C(=O)Nc3cc(-c4ccccc4)ccc3C(=O)O)c2)n1` [Example 73a, 2-(5-(6-aminopyridin-2-yl)-2-hydroxybenzamido)-4-phenylbenzoic acid] was run?
The inhibition at 10 µM was 96%.

Which inhibition at 10 µM does the source give for `Cc1cccc(C(=O)Nc2cc(-c3ccccc3)ccc2C(=O)O)c1O` [Example 41a, 2-(2-hydroxy-3-methylbenzamido)-4-phenylbenzoic acid] here?
Its inhibition at 10 µM is 99%.

How did the inhibition at 10 µM turn out when `COc1ccccc1-c1ccc(C(=O)O)c(NC(=O)c2cc(-c3ccccn3)ccc2O)c1` [Example 35a, 2-(2-Hydroxy-5-(pyridin-2-yl)benzamido)-4-(2-methoxyphenyl)benzoic acid hydrochloride] was run?
Its inhibition at 10 µM is 90%.

For `CC1CCCN(c2ccc(O)c(C(=O)Nc3cc(-c4ccccc4)ccc3C(=O)O)c2)C1` (stereo not shown) [166a, 2-(2-Hydroxy-5-(3-methylpiperidin-1-yl)benzamido)-4-phenylbenzoic acid hydrochloride], which inhibition at 10 µM is on record?
The inhibition at 10 µM was 95%.

With `CCN(CCN(C)C)c1ccc(O)c(C(=O)Nc2cc(-c3ccccc3)ccc2C(=O)O)c1` [Example 104a, 2-(5-((2-(Dimethylamino)ethyl)(ethyl)amino)-2-hydroxybenzamido)-4-phenylbenzoic acid] as the compound, how does the inhibition at 10 µM read?
Its inhibition at 10 µM is 92%.

How did the inhibition at 10 µM turn out when `COc1ccc(O)c(C(=O)Nc2cc(-c3ccccc3)ccc2C(=O)O)c1` [Example 7a, 2-(2-Hydroxy-5-methoxybenzamido)-4-phenylbenzoic acid] was run?
The inhibition at 10 µM was 94%.

With `O=C(Nc1cc(-c2ccc3c(c2)ONO3)ccc1C(=O)O)c1cc(N2CCOCC2)ccc1O` [207a, 4-(Benzo-[1,3]-dioxazol-5-yl)-2-(2-hydroxy-5-(morpholin-4-yl)benzamido)benzoic acid] as the compound, how does the inhibition at 10 µM read?
Its inhibition at 10 µM is 83%.

`CN1CCN(c2ccc(O)c(C(=O)Nc3cc(-c4ccccc4)ccc3C(=O)O)c2)CC1` [Example 92a, 2-(2-hydroxy-5-(4-methylpiperazin-1-yl)benzamido)-4-phenylbenzoic acid dimethanesulfonate] was tested. Which inhibition at 10 µM did it give?
Its inhibition at 10 µM is 84%.

Which inhibition at 10 µM does the source give for `CN1CCCCC1c1ccc(O)c(C(=O)Nc2cc(-c3ccccc3)ccc2C(=O)O)c1` (stereo not shown) [217a, 2-(2-hydroxy-5-(1-methylpiperidin-2-yl)benzamido)-4-phenylbenzoic acid] here?
The inhibition at 10 µM was 91%.

With `CN1CCN(c2ccc(O)c(C(=O)Nc3cc(-c4ccccc4)ccc3C(=O)O)c2)CC1=O` [193a, 2-(2-Hydroxy-5-(4-methyl-3-oxopiperazin-1-yl)benzamido)-4-phenylbenzoic acid] as the compound, how does the inhibition at 10 µM read?
Its inhibition at 10 µM is 85%.

How did the inhibition at 10 µM turn out when `O=C(Nc1cc(-c2ccccc2)ccc1C(=O)O)c1cc(-c2ccco2)ccc1O` [Example 68a, 2-(5-(furan-2-yl)-2-hydroxybenzamido)-4-phenylbenzoic acid] was run?
The inhibition at 10 µM was 98%.

For `O=C(Nc1cc(-c2ccccc2)ccc1C(=O)O)c1cc(OCCN2CCN(CCCO)CC2)ccc1O` [174a, 2-(2-hydroxy-5-(2-(4-(3-hydroxypropyl)piperazin-1-yl)ethoxy)benzamido)-4-phenylbenzoic acid], which inhibition at 10 µM is on record?
Its inhibition at 10 µM is 86%.

Which inhibition at 10 µM does the source give for `Cc1ccccc1-c1ccc(C(=O)O)c(NC(=O)c2cc(N3CCCCC3)ccc2O)c1` [Example 148a, 2-(2-hydroxy-5-(piperidin-1-yl)benzamido)-4-(2-methylphenyl)benzoic acid] here?
The inhibition at 10 µM was 93%.

How did the inhibition at 10 µM turn out when `O=C(Nc1cc(-c2ccc[nH]2)ccc1C(=O)O)c1cc(N2CCCCC2)ccc1O` [157a, 2-(2-hydroxy-5-(piperidin-1-yl)benzamido)-4-(1H-pyrrol-2-yl)benzoic acid] was run?
Its inhibition at 10 µM is 84%.

How did the inhibition at 10 µM turn out when `O=C(Nc1cc(-c2ccccc2)ccc1C(=O)O)c1cc(Cl)ccc1O` [Example 2a, 2-(5-Chloro-2-hydroxybenzamido)-4-phenylbenzoic acid] was run?
Its inhibition at 10 µM is 99%.

With `CN(C)c1ccc(O)c(C(=O)Nc2cc(-c3ccccc3)ccc2C(=O)O)c1` [Example 76a, 2-(5-(dimethylamino)-2-hydroxybenzamido)-4-phenylbenzoic acid hydrochloride] as the compound, how does the inhibition at 10 µM read?
Its inhibition at 10 µM is 72%.

Which inhibition at 10 µM does the source give for `O=C(Nc1cc(-c2cccc(F)c2)ccc1C(=O)O)c1cc(N2CCOCC2)ccc1O` [198a, 4-(3-Fluorophenyl)-2-(2-hydroxy-5-(morpholin-4-yl)benzamido)benzoic acid] here?
Its inhibition at 10 µM is 81%.

`O=C(Nc1cc(-c2ccccc2)ccc1C(=O)O)c1cc(OCCN2CCC2)ccc1O` [177a, 2-(5-(2-(azetidin-1-yl)ethoxy)-2-hydroxybenzamido)-4-phenylbenzoic acid hydrochloride] was tested. Which inhibition at 10 µM did it give?
Its inhibition at 10 µM is 82%.

`CNC1CCN(Cc2ccc(O)c(C(=O)Nc3cc(-c4ccccc4)ccc3C(=O)O)c2)CC1` [Example 126a, 2-(2-Hydroxy-5-((4-(methylamino)piperidin-1-yl)methyl)benzamido)-4-phenylbenzoic acid dimethanesulfonate] was tested. Which inhibition at 10 µM did it give?
The inhibition at 10 µM was 79%.

With `O=C(Nc1cc(-c2ccccc2)ccc1C(=O)O)c1cc(OCCN2CCCCCC2)ccc1O` [181a, 2-(5-(2-(Homopiperidin-1-yl)ethoxy)-2-hydroxybenzamido)-4-phenylbenzoic acid hydrochloride] as the compound, how does the inhibition at 10 µM read?
Its inhibition at 10 µM is 74%.

For `Cc1ccc(-c2ccc(C(=O)O)c(NC(=O)c3cc(N4CCCCC4)ccc3O)c2)cc1` [Example 150a, 2-(2-Hydroxy-5-(piperidin-1-yl)benzamido)-4-(4-methylphenyl)benzoic acid], which inhibition at 10 µM is on record?
Its inhibition at 10 µM is 93%.

How did the inhibition at 10 µM turn out when `CN1CCC(c2ccc(O)c(C(=O)Nc3cc(-c4ccccc4)ccc3C(=O)O)c2)CC1` [Example 50a, 2-(2-hydroxy-5-(1-methylpiperidin-4-yl)benzamido)-4-phenylbenzoic acid] was run?
The inhibition at 10 µM was 75%.

Same assay, conditions: Homo sapiens; 10 μmol/L test compound; WI-38 cells, TGF-β1 1 ng/mL, 24 hours; Table 4b; read-out: Inhibition rate (%) at 10 μmol/L

`O=C(Nc1cc(-c2ccccc2C(F)(F)F)ccc1C(=O)O)c1cncc(-c2ccccc2)c1` [33b, Sodium 2-(5-phenylpyridine-3-carboxamido)-4-(2-(trifluoromethyl)phenyl)benzoate] was tested. Which inhibition at 10 µM did it give?
The inhibition at 10 µM was 78%.

Which inhibition at 10 µM does the source give for `O=C(Nc1cc(-c2ccccc2)ccc1C(=O)O)c1cccc(-c2ccccc2)n1` [5b, 4-Phenyl-2-(6-phenylpyridine-2-carboxamido)benzoic acid] here?
Its inhibition at 10 µM is 72%.

`Cc1ccccc1-c1ccc(C(=O)O)c(NC(=O)c2cncc(-c3ccccc3)c2)c1` [32b, Sodium 4-(2-methylphenyl)-2-(5-phenylpyridine-3-carboxamido)benzoate] was tested. Which inhibition at 10 µM did it give?
Its inhibition at 10 µM is 81%.

`COc1cccc(-c2ccc(C(=O)O)c(NC(=O)c3cncc(-c4ccccc4)c3)c2)c1` [35b, Sodium 4-(3-methoxyphenyl)-2-(5-phenylpyridine-3-carboxamido)benzoate] was tested. Which inhibition at 10 µM did it give?
The inhibition at 10 µM was 96%.

For `Nc1ccccc1-c1ccc(C(=O)O)c(NC(=O)c2cncc(-c3ccccc3)c2)c1` [27b, 4-(2-Aminophenyl)-2-(5-phenylpyridine-3-carboxamido)benzoic acid], which inhibition at 10 µM is on record?
Its inhibition at 10 µM is 72%.

`O=C(Nc1cc(-c2ccccc2)ccc1-c1nnn[nH]1)c1cncc(-c2ccccc2)c1` [29b, 5-phenyl-N-(5-phenyl-2-(1H-tetrazol-5-yl)phenyl)pyridine-3-carboxamide] was tested. Which inhibition at 10 µM did it give?
Its inhibition at 10 µM is 86%.

Which inhibition at 10 µM does the source give for `CNc1cccc(-c2ccc(C(=O)O)c(NC(=O)c3cncc(-c4ccccc4)c3)c2)c1` [13b, 4-(3-(Methylamino)phenyl)-2-(5-phenylpyridine-3-carboxamido)benzoic acid] here?
Its inhibition at 10 µM is 92%.

From patent publication US8492582B2, “N-acyl anthranilic acid derivative or salt thereof” (Toyama Chemical Co., Ltd., priority 2009, dated 2013)
